Tests used:
[1] = test system: radiation-induced oral mucositis; assay: Second efficacy study, radiation-induced oral mucositis, 18 Gy single fraction (Example F-4); type: in vivo, mice
Experimental: The experiment was conducted with gels containing 20, 40 or 80 mg/ml Amifostine (corresponding to 12.5, 25 or 50 mg/ml amifostine thiol respectively). A lower dose of irradiation (a single fraction irradiation of 18 Gy) was delivered to the snout, so that all the mice could be kept alive until the end of the experiment. Different amounts of compound were administered to mice (1; 2 or 4 mg per mouse).
The same experimental procedure as for in example F-2 was used. Briefly, mice were anesthetized, Amifostine or Amifostine thiol was delivered 10 minutes later or not depending on the group (gel application or intravenous injection), mice were irradiated dorsally at an 18 Gy dose 30 minutes after the administration of Amifostine or Amifostine thiol and awakened 20 minutes later.
[…] were allocated to 6 groups: • Control (n=6 mice); • Placebo gel (n=6 mice); • Amifostine thiol 20 mg/ml gel (1 mg amifostine/mouse, n=6 mice); • Amifostine thiol 40 mg/ml gel (2 mg amifostine/mouse, n=6 mice); • Amifostine thiol 80 mg/ml gel (4 mg amifostine/mouse, n=6 mice); and • Amifostine intravenous (IV) (20 mg/ml) (4 mg amifostine/mouse, n=5 mice).
For each group, the development of oral mucositis was evaluated on 5 or 6 mice depending on the group. An 18 Gy dose irradiation induced a less severe phenotype than the 20 Gy dose irradiation that was used in the first efficacy experiment.

[2] = test system: radiation-induced oral mucositis; assay: Third efficacy study, radiation-induced oral mucositis, four fractions of 8 Gy (Example F-6); type: in vivo, mice
Source text: Four fractions of 8 Gy were delivered for four consecutive days (everyday from day 0 to day 3; day 0 corresponding to the first day of treatment) to the snout. The fractionation scheme of four fractions of 8 Gy was chosen, because it is biologically equivalent to 1 fraction of 18 Gy (Biologically Effective Dose: BED 120 Gy). […] Thus, the compound was applied 4 times for four consecutive days. For each day, a similar experimental procedure as for in example F-2 was used. […] The same experimental procedure was repeated for 4 consecutive days.

[3] = test system: radiation-induced oral mucositis; assay: Efficacy study, radiation-induced oral mucositis, 20 Gy single fraction (Example F-2); type: in vivo, C57BL/6 mice
Experimental: Female C57BL/6 mice (12 weeks old) purchased from Janvier CERT (Le Genest St. Isle, France) were used after an acclimation time of 7 days. They had free access to food (SAFE reference R0340, Augy, France) and water. They were housed on a 12 hours light/dark cycle at a room temperature of 22° C.±2° C. and a relative humidity of 55%±15%.
Irradiation was carried out locally with a X-ray Varian NDI 226 tube (200 kV, 15 mA, 0.2 mm Cu) at a dose rate of 1.33 Gy/min, the rest of the body being protected by a lead shield. Mice were euthanized when body weight loss exceeded 20% of the initial weight for more than 24 hours or in case of severe clinical signs (ethical endpoints). […]
Two parameters were monitored: the body weight and the Parkins score. This represents an arbitrary score system devised by Parkins and co-workers with separate scores for edema and erythema evaluated by macroscopic observation (Parkins, C. S., Fowler, J. F., and Yu, S. (1983). A murine model of lip epidermal/mucosal reactions to X-irradiation. Radiotherapy and oncology: Journal of the European Society for Therapeutic Radiology and Oncology 1, 159-165). […]
The Parkins score is calculated as follows: “Parkins score”=edema score+erythema score.
A single dose irradiation was delivered to the snout of mice. This induced a mucosal/epidermal lip reaction that was monitored through macroscopic observation and scoring. […]

[4] = Stability of lyophilized powder of aminothiol (WR-1065) at 25° C./60% RH under argon; type: physicochemical
Experimental: A stability study is performed to compare stability of: • WR-1065 obtained by conversion of amifostine (350 mg/ml or 500 mg/ml) in acidic condition (respectively HCl 1M or HCl 4M), diluted in water or in P407/P188 mixture and then lyophilized (based on examples described in parts A & B), and • WR-1065 hydrochloride salt crystalline powder.
Stability is assessed by analysis of samples stored under argon atmosphere at 25° C./60% RH. The aim of argon is to provide two materials under same stability condition.

[5] = T1m-25° C./60% RH, under argon atm.
[6] = T15d-25° C./60% RH, under argon atm.

Amifostine ([4]; T0, under argon atm.) | Aminothiol ([4]; T0, under argon atm.) | Disulfides ([4]; T0, under argon atm.) | Unknow ([4]; T0, under argon atm.) | Amifostine [4, 5] | Aminothiol [4, 5] | Disulfides [4, 5] | Unknow [4, 5] | Amifostine [4, 6] | Aminothiol [4, 6] | Disulfides [4, 6] | Unknow [4, 6] | SMILES | effect on mucositis peak and healing period, in words [1] | day of acute peak of mucosal reaction ([1]; IV 4 mg amifostine/mouse) | Parkins score at the peak of mucosal reaction ([1]; gels 1, 2 or 4 mg amifostine/mouse, IV 4 mg/mouse, 30 minutes before irradiation) | day of acute peak of mucosal reaction ([2]; IV 2 mg amifostine/mouse) | Parkins score at the peak of mucosal reaction ([2]; day 0 to day 3, 2 mg amifostine per mouse before each fraction, thiol gel = Gel n°9) | effect on development and intensity of mucositis (Parkins score), in words ([3]; 20 Gy single fraction to snout, 4 mg amifostine/mouse 30 minutes before irradiation, thiol gel = Gel n°1, Amifostine gel = Gel n°2) | day after irradiation at which edema and erythema completely disappeared ([3]; 20 Gy single fraction, 4 mg amifostine/mouse IV)
– | – | – | – | – | – | – | – | – | – | – | – | NCCCNCCSP(=O)(O)O [Amifostine IV, Amifostine] | healing period was nearly absent | 12 days | 2.2 | ~15 days | 2.6 | mucosal reaction of moderate intensity | 20 days
0% | 99.7% | 0.3% | <LOQ | 0% | 99.3% | 0.5% | 0.2% | 0% | 99.6% | 0.4% | <LOQ | NCCCNCCS [WR-1065•2HCl native, 2-[(3-aminopropyl)amino]ethanethiol] | – | – | – | – | – | – | –

Reference: patent publication US11021442B2, “Process for the preparation of freeze-dried 2-[(3-aminopropyl)amino] ethanethiol formulation” (CLEVEXEL PHARMA, priority 2016, dated 2021)
